According to patent US20060004029A1, “Nitrogen-containing aromatic derivatives” (priority 2003, published 2006):

Tests used:
[1] = tested on: Human Umbilical Vein Endothelial Cells (HUVECs); assay: Inhibition against sandwich tube formation by vascular endothelial cells, FGF2-stimulated; type: cell-based; settings: HUVEC, 20 ng/ml FGF2 and 10 ng/ml EGF, 4th day after addition
Experimental: Human Umbilical Vein Endothelial Cells (HUVECs) were isolated according to a reported method (Shinseikagaku Jikken Koza [New Biochemistry Experiment Lectures], “Saibo Baiyo Gijutsu” [Cell Culturing Techniques], p. 197-202), • and were cultured in a 5% CO2 incubator (37° C.) using EGM-2 medium (purchased from Clonetics Corp.) until the cells reached confluency.
An ice-cooled mixture of collagen: 5×RPMI 1640: reconstitution buffer (all purchased from Nitta Gelatin, Inc.) at 7:2:1 was dispensed at 0.4 ml into each well of a 24-well plate. After the solution was gelled by being stationed for 40 minutes in a 5% CO2 incubator (37° C.), HUVEC cell suspension was added at 0.4 ml to each well (using 1 to 1.2×10^5 cells, though the numbers of cells differ slightly according to the HUVEC lot), the HUVEC cell suspension being in human endothelial serum free medium (SFM, purchased from GIBCO BRL) containing added angiogenesis factors [20 ng/ml FGF2 (purchased from GIBCO BRL) and 10 ng/ml EGF (purchased from GIBCO BRL), or 25 ng/ml VEGF (purchased from Wako Pure Chemical Industries Co., Ltd.) and 10 ng/ml EGF, or 30 ng/ml HGF (purchased from R&D Co.) and 10 ng/ml EGF], and cultured overnight in a 5% CO2 incubator (37° C.). On the following day, the medium on the upper layer was aspirated off, and then 0.4 ml of an ice-cooled mixture of collagen: 5×RPMI 1640: reconstitution buffer (all purchased from Nitta Gelatin, Inc.) at 7:2:1 was superposed into each well prior to stationing for 4 hours in a 5% CO2 incubator (37° C.) for gelling. After adding 1.5 ml of an SFM solution containing each of the aforementioned angiogenesis factors and a diluted test substance onto the upper layer, culturing was performed in a 5% CO2 incubator (37° C.). Upon aspirating off the culture supernatant in each well on the 4th day after addition of the test substance, 0.4 ml of a 3.3 mg/ml MTT solution dissolved in PBS (purchased from Sigma Corp.) was added to each well and culturing was performed for approximately 2 hours in a 5% CO2 incubator (37° C.). The tubes formed in the collagen gel of each well were stained by MTT, the tube images were loaded into a computer (Macintosh), and the total length of the tubes was determined by image analysis software “MacScope” (purchased from Mitani Corp.). The ratio of the total length of the tubes formed in the well containing the test substance with respect to the total length of the tubes formed in the well containing no test substance was expressed as a percentage, and the concentration of each test substance required for 50% inhibition of tube formation (IC50) was determined from the ratio value.

[2] = target: T1, VEGFR2 (Homo sapiens, UniProt P35968); assay: Inhibition against receptor tyrosine kinase activity (HTRF), VEGFR2; type: biochemical; settings: His6-VEGFR2 cytoplasmic domain, biotin-poly(GT), HTRF; read-out: VEGFR2 kinase IC50
T1 construct: coding for the cytoplasmic domain, beginning with lysine 791 and including the termination codon; made in house; host or cells: Sf9 insect cells, baculovirus (pFastBacHis)
Experimental: This assay is used to determine inhibition of a test substance on tyrosine kinase activity. […] Expression in an appropriate expression system can produce a polypeptide with tyrosine kinase activity. […] The recombinant construct was transfected into insect cells (Spondoptea frugiperda9 (Sf9)) to prepare a recombinant Baculovirus.
For expression of the VEGFR2 tyrosine kinase, Sf9 cells were infected with the VEGFR2 recombinant virus and collected after 48 hours. The collected cells were rinsed with ice-cooled phosphate buffered saline (PBS) and then resuspended using 20 ml of ice-cooled Lysis Buffer (50 mM Tris-HCl (pH 8.5), 5 mM 2-mercaptoethanol, 100 mM KCl, 1 mM phenylmethylsulfonyl fluoride, 1% (v/v) NP-40) per 1.5×10^8 cells. The suspension was centrifuged at 12,000 rpm for 30 minutes at 4° C. and the supernatant was obtained. The supernatant was added to a Ni-NTA agarose column (3 ml, purchased from Qiagen) equilibrated with Buffer A {20 mM Tris-HCl (pH 8.5), 5 mM 2-mercaptoethanol, 500 mM KCl, 20 mM imidazole, 10% (v/v) glycerol}. The column was washed with 30 ml of Buffer A, and then with 6 ml of Buffer B {20 mM Tris-HCl (pH 8.5), 5 mM 2-mercaptoethanol, 1M KCl, 10% (v/v) glycerol}, and finally with 6 ml of Buffer A. After washing, it was eluted with 6 ml of Buffer C {20 mM Tris-HCl (pH 8.5), 5 mM 2-mercaptoethanol, 100 mM KCl, 100 mM imidazole, 10% (v/v) glycerol}. The eluate was placed on a dialysis membrane (purchased from Spectrum Laboratories) and dialyzed with a dialysis buffer {20 mM Tris-HCl (pH 7.5), 10% (v/v) glycerol, 1 mM dithiothreitol, 0.1 mM Na3VO4, 0.1 mM EGTA}. […] Using the same method for the cytoplasmic domains of FGFR1, PDGFRβ and HGFR yielded respective recombinant proteins fused with 6 histidine residues at the N-terminal (His6-FGFR1, His6-PDGFRβ or His6-HGFR).
The tyrosine kinase reaction was conducted as follows. […] Next, 10 μl of 4 μM ATP (diluted with distilled water) was added prior to incubation at 30° C. for 10 minutes, and then 10 μl of 500 mM EDTA (pH 8.0) was added.
The tyrosine phosphorylation rate for the biotin-poly(GT) was expressed as the delta F % value as described in the HTRF Standard Experiment Methods text by CIS Diagnostics Co. The delta F % value in the presence of the test substance was determined as a ratio (%) with the delta F % value with addition of His6-VEGFR2 in the absence of the test substance defined as 100% and the delta F % value in the absence of both the test substance and His6-VEGFR2 defined as 0%.

[3] = tested on: KP-1/VEGF cells; assay: Antitumor activity on KP-1/VEGF cells in subcutaneous xenograft models; type: in vivo, mouse; settings: oral twice a day, 2 weeks (5 days per week), Balb/c (nu/nu) mice
Experimental: VEGF high-expressing pancreatic cancer cells (KP-1/VEGF) suspended in PBS at a concentration of 1×10^7 cells/ml were transplanted under the right flank skin of 6-week-old female Balb/c (nu/nu) mice in a volume of 0.1 ml. When the tumor volume reached approximately 100 mm^3, the test substance was orally administered twice a day over a period of 2 weeks with a schedule of 5 days per week. The test substance was suspended in 0.5% methyl cellulose for an administered volume of 0.1 ml/10 g body weight. The tumor size was measured twice a week using a micrometer caliper. The tumor volume was determined by measuring the long and short diameters of the tumor with a micrometer caliper, and calculating ½×(long diameter×short diameter×short diameter). The experiment was conducted using 10 mice in the control (solvent-administered) group and 5 mice in each test substance-administered group.

T1 sequence (P35968 786-1356 limits assumed): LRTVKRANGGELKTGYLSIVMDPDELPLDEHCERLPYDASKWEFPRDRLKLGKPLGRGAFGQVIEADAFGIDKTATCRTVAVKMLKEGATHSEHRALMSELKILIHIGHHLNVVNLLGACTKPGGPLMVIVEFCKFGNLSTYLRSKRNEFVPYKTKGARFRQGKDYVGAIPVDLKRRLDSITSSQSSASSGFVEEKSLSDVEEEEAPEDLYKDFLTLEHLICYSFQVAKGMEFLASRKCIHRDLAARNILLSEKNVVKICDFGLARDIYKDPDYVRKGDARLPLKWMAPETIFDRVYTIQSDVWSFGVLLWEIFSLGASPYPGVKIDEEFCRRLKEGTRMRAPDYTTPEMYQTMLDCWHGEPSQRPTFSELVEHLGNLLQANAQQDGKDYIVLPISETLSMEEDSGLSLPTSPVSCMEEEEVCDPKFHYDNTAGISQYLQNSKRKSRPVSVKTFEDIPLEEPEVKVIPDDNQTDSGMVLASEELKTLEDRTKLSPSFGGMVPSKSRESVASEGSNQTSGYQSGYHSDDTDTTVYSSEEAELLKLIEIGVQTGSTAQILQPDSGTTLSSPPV

Row | SMILES | IC50 [2] [nM] | IC50 [1] [nM] | proportion of the tumor volume after administering test substance to that of control ([3]; 6 mg/kg/day) [%] | proportion of the tumor volume after administering test substance to that of control ([3]; 20 mg/kg/day) [%] | proportion of the tumor volume after administering test substance to that of control ([3]; 60 mg/kg/day) [%] | proportion of the tumor volume after administering test substance to that of control ([3]; 200 mg/kg/day) [%]
1 | CNC(=O)n1ccc2cc(Oc3ccnc(NC(=O)N4CCC(O)CC4)c3)ccc21 [Example 39, N1-Methyl-5-(2-((4-hydroxypiperidino)carbonyl)amino-4-pyridyl)oxy-1H-1-indolecarboxamide] | 4.5 | 470 |  |  |  | 
2 | CNC(=O)n1ccc2cc(Oc3ccnc(NC(=O)N4CCC(C)(O)CC4)c3)ccc21 [Example 41, 5-(2-(((4-Hydroxy-4-methylpiperidin-1-yl)carbonyl)amino)pyridin-4-yloxy)-1H-1-indole-1-carboxylic acid methylamide] | 6.1 | 250 |  |  |  | 
3 | CNC(=O)n1ccc2cc(Oc3ccnc(NC(=O)N4CCC(N5CCCC5)CC4)c3)ccc21 [Example 46, N1-Methyl-5-(2-(((4-(pyrrolidin-1-yl)piperidin-1-yl)carbonyl)amino)pyridin-4-yloxy)-1H-1-indolecarboxamide] | 32 | 470 | 77.7 | 59.3 | 60.0 | 36.2

More lines, main results first:

Row | IC50 [2] [nM] | SMILES | IC50 [1] [nM] | proportion of the tumor volume after administering test substance to that of control ([3]; 6 mg/kg/day) [%] | proportion of the tumor volume after administering test substance to that of control ([3]; 20 mg/kg/day) [%] | proportion of the tumor volume after administering test substance to that of control ([3]; 60 mg/kg/day) [%] | proportion of the tumor volume after administering test substance to that of control ([3]; 200 mg/kg/day) [%]
4 | 40 | CNC(=O)n1ccc2cc(Oc3ccnc(NC(=O)N4CCC(N5CCCCC5)CC4)c3)ccc21 [Example 47, N1-Methyl-5-(2-(((4-(piperidin-1-yl)piperidin-1-yl)carbonyl)amino)pyridin-4-yloxy)-1H-1-indolecarboxamide] | 120 | 80.5 | 64.6 | 45.3 | 33.6
5 | 3.8 | CNC(=O)n1ccc2cc(Oc3ccnc(NC(=O)N4CCOCC4)c3)ccc21 [Example 53, N4-(4-(1-(Methylamino)carbonyl-1H-5-indolyl)oxy-2-pyridyl)-4-morpholinecarboxamide] | 440 | 73.1 | 60.4 | 48.4 | 37.9
